Where two headings read alike, the source gives them in different places.
Assays:
Format in all cases: biochemical
kinases [1] = target: kinases (Homo sapiens, UniProt P35626); conditions: ADRBK2 (GRK3) FRET-Z-Lyte SP; Test Conc(μM):ATP Conc(μM) 1:10
kinases [2] = target: kinases (Homo sapiens, UniProt Q9H0K1); conditions: SNF1LK2 FRET-Z-Lyte SP; Test Conc(μM):ATP Conc(μM) 1:50
kinases [3] = target: kinases (Homo sapiens, UniProt P05129); conditions: PRKCG (PKC gamma) Z-Lyte SP; Test Conc(μM):ATP Conc(μM) 1:25
kinases [4] = target: kinases (Homo sapiens, UniProt Q13470); conditions: TNK1 FRET-Z-Lyte SP; Test Conc(μM):ATP Conc(μM) 1:200
kinases [5] = target: kinases (Homo sapiens, UniProt Q52WX2); conditions: SBK1 FRET-Z-Lyte SP; Test Conc(μM):ATP Conc(μM) 1:5
kinases [6] = target: kinases (Homo sapiens, UniProt O95835); conditions: LATS1 FRET-Lantha SP; Test Conc(μM) 1
kinases [7] = target: kinases (Homo sapiens, UniProt Q86SG6); conditions: NEK8 FRET-Lantha SP; Test Conc(μM) 1
kinases [8] = target: kinases (Homo sapiens, UniProt O75116); conditions: ROCK2 FRET-Z-Lyte SP; Test Conc(μM):ATP Conc(μM) 1:50
kinases [9] = target: kinases (Homo sapiens, UniProt Q9Y616); conditions: IRAK3 FRET-Lantha SP; Test Conc(μM) 1
kinases [10] = target: kinases (Homo sapiens, UniProt Q00536); conditions: CDK16(PCTK1)/cyclinY Lantha SP; Test Conc(μM) 1
kinases [11] = target: kinases (Homo sapiens, UniProt Q86Z02); conditions: HIPK1 (Myak) FRET-Z-Lyte SP; Test Conc(μM):ATP Conc(μM) 1:5
kinases [12] = target: kinases (Homo sapiens, UniProt P06241)
kinases [13] = target: kinases (Homo sapiens, UniProt Q8IYT8); conditions: ULK2 FRET-Lantha SP; Test Conc(μM) 1
kinases [14] = target: kinases (Homo sapiens, UniProt Q96GX5); conditions: MASTL FRET-Lantha SP; Test Conc(μM) 1
kinases [15] = target: kinases (Homo sapiens, UniProt P50750)
kinases [16] = target: kinases (Homo sapiens, UniProt P19784); conditions: CSNK2A2 (CK2alpha2) Z-Lyte SP; Test Conc(μM):ATP Conc(μM) 1:50
kinases [17] = target: kinases (Homo sapiens, UniProt Q12866); conditions: MERTK (cMER) *Mn* Z-Lyte SP; Test Conc(μM):ATP Conc(μM) 1:10
kinases [18] = target: kinases (Homo sapiens, UniProt P11362); conditions: FGFR1 *Mn* FRET-Z-Lyte SP; Test Conc(μM):ATP Conc(μM) 1:25
kinases [19] = target: kinases (Homo sapiens, UniProt P30530); conditions: AXL FRET-Z-Lyte SP; Test Conc(μM):ATP Conc(μM) 1:75
kinases [20] = target: kinases (Homo sapiens, UniProt Q8NEB9); conditions: PIK3C3 (hVPS34) *Mn* Adapta SP; Test Conc(μM):ATP Conc(μM) 1:10
kinases [21] = target: kinases (Homo sapiens, UniProt P49841); conditions: GSK3B FRET-Z-Lyte SP; Test Conc(μM):ATP Conc(μM) 1:10
kinases [22] = target: kinases (Homo sapiens, UniProt Q04759); conditions: PRKCQ (PKC theta) Z-Lyte SP; Test Conc(μM):ATP Conc(μM) 1:100
kinases [23] = target: kinases (Homo sapiens, UniProt P07947); conditions: YES1 FRET-Z-Lyte SP; Test Conc(μM):ATP Conc(μM) 1:25
kinases [24] = target: kinases (Homo sapiens, UniProt Q9UEW8); conditions: STK39 (STLK3) FRET-Lantha SP; Test Conc(μM) 1
kinases [25] = target: kinases (Homo sapiens, UniProt Q16512); conditions: PKN1 (PRK1) FRET-Z-Lyte SP; Test Conc(μM):ATP Conc(μM) 1:50
kinases [26] = target: kinases (Homo sapiens, UniProt P41743); conditions: PRKCI (PKC iota) Z-Lyte SP; Test Conc(μM):ATP Conc(μM) 1:25
kinases [27] = target: kinases (Homo sapiens, UniProt O75385); conditions: ULK1 FRET-Lantha SP; Test Conc(μM) 1
kinases [28] = target: kinases (Homo sapiens, UniProt P49759); conditions: CLK1 FRET-Z-Lyte SP; Test Conc(μM):ATP Conc(μM) 1:25
[29] = FYN A FRET-Lantha SP, Test Conc(μM) 1
[30] = FYN FRET-Z-Lyte SP, Test Conc(μM):ATP Conc(μM) 1:75
[31] = CDK9 (Inactive) FRET-Lantha SP, Test Conc(μM) 1
[32] = CDK9/cyclin K FRET-Lantha SP, Test Conc(μM) 1
[33] = CDK9/cyclin T1 FRET-Adapta SP, Test Conc(μM):ATP Conc(μM) 1:25

Chain of kinases (Homo sapiens, UniProt P06241) (P06241 whole entry): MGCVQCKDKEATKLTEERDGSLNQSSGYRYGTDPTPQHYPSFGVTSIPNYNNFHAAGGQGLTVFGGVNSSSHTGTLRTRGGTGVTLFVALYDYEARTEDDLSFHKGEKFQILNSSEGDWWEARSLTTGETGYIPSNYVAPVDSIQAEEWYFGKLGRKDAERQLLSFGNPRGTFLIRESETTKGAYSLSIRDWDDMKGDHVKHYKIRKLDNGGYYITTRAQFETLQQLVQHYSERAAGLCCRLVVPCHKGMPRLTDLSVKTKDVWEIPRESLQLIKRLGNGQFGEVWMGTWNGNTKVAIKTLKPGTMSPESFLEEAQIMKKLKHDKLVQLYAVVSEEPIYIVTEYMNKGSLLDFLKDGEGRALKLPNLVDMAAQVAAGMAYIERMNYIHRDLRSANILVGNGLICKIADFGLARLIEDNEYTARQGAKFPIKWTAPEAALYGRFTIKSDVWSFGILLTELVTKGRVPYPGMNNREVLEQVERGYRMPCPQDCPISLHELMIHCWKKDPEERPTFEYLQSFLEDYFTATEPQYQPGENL
Chain of kinases (Homo sapiens, UniProt P50750) (P50750 whole entry): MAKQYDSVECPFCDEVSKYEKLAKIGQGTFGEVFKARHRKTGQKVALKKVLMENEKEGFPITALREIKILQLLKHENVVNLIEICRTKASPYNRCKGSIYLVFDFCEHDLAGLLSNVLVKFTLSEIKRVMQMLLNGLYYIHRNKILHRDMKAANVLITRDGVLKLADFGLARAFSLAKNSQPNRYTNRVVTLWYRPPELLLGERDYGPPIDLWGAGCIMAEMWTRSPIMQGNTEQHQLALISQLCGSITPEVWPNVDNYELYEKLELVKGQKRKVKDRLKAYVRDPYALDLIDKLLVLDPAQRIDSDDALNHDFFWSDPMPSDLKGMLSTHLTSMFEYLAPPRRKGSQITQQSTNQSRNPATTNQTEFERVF
Chain of kinases (Homo sapiens, UniProt P30530) (P30530 26-894): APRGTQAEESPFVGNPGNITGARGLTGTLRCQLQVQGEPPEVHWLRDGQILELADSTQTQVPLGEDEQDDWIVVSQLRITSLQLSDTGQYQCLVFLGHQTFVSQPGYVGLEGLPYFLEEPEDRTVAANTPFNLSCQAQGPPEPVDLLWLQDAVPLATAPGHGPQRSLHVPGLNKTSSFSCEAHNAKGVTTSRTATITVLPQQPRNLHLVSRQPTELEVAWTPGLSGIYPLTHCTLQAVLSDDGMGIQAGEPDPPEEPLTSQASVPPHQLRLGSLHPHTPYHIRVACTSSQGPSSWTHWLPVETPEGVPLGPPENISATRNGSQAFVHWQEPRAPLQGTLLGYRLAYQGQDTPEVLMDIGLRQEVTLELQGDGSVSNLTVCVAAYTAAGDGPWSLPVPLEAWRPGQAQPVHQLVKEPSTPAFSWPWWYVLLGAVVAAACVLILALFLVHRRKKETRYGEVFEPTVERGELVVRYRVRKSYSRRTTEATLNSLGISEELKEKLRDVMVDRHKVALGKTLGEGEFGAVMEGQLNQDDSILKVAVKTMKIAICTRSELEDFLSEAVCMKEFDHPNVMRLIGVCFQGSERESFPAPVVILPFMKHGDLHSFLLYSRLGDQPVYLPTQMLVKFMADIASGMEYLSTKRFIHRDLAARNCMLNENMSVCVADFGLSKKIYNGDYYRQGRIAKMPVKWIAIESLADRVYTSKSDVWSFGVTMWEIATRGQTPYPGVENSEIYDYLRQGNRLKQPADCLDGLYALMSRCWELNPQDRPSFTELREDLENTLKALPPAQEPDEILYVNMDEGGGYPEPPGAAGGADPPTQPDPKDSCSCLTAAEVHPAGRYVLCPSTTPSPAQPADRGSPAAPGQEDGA
Chain of kinases (Homo sapiens, UniProt P35626) (P35626 whole entry): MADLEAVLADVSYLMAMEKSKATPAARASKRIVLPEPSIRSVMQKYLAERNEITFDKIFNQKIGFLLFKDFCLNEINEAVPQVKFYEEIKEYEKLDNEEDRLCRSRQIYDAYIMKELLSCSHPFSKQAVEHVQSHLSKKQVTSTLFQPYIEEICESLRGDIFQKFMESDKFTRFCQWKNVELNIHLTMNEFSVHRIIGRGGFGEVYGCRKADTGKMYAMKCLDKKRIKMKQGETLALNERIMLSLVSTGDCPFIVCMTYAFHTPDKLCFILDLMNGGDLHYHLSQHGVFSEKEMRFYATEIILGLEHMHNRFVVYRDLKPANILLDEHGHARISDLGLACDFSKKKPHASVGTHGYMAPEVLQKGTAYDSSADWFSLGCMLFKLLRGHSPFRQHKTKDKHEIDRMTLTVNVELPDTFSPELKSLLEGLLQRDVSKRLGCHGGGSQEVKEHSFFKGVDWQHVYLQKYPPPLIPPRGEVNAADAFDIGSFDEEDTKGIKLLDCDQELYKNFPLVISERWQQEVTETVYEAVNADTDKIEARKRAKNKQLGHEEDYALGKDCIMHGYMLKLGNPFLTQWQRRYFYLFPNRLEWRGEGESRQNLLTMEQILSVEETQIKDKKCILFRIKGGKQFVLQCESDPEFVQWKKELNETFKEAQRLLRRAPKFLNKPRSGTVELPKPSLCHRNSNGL
Chain of kinases (Homo sapiens, UniProt O95835) (O95835 whole entry): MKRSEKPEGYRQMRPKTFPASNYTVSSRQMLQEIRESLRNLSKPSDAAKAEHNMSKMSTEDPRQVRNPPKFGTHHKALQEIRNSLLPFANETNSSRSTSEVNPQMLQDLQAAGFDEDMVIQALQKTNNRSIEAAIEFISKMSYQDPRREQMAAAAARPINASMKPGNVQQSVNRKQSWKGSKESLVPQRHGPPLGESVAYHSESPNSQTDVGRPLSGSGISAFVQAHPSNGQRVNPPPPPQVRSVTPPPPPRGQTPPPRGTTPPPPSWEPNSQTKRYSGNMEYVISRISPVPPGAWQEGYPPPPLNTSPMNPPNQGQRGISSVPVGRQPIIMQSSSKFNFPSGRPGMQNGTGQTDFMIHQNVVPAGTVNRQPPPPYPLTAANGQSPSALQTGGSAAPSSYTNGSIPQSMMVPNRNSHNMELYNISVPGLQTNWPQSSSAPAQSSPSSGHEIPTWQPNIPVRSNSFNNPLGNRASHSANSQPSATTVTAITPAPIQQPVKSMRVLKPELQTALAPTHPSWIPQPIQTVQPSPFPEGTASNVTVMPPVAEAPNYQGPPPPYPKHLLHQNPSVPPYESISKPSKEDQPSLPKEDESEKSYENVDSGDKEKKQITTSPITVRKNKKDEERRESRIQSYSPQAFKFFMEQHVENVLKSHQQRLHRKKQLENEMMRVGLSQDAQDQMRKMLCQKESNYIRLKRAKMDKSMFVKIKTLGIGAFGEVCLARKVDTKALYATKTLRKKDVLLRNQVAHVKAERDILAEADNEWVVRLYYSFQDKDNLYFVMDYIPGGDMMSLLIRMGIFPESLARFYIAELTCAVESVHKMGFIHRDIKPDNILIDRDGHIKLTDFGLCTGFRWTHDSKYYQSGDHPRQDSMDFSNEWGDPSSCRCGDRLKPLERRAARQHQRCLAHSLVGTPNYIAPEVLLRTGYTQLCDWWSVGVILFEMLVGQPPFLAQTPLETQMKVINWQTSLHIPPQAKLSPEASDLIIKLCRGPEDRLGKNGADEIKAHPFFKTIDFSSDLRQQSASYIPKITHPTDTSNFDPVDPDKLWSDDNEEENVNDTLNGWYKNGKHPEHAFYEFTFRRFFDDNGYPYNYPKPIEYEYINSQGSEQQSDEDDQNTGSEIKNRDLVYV
Chain of kinases (Homo sapiens, UniProt O75116) (O75116 whole entry): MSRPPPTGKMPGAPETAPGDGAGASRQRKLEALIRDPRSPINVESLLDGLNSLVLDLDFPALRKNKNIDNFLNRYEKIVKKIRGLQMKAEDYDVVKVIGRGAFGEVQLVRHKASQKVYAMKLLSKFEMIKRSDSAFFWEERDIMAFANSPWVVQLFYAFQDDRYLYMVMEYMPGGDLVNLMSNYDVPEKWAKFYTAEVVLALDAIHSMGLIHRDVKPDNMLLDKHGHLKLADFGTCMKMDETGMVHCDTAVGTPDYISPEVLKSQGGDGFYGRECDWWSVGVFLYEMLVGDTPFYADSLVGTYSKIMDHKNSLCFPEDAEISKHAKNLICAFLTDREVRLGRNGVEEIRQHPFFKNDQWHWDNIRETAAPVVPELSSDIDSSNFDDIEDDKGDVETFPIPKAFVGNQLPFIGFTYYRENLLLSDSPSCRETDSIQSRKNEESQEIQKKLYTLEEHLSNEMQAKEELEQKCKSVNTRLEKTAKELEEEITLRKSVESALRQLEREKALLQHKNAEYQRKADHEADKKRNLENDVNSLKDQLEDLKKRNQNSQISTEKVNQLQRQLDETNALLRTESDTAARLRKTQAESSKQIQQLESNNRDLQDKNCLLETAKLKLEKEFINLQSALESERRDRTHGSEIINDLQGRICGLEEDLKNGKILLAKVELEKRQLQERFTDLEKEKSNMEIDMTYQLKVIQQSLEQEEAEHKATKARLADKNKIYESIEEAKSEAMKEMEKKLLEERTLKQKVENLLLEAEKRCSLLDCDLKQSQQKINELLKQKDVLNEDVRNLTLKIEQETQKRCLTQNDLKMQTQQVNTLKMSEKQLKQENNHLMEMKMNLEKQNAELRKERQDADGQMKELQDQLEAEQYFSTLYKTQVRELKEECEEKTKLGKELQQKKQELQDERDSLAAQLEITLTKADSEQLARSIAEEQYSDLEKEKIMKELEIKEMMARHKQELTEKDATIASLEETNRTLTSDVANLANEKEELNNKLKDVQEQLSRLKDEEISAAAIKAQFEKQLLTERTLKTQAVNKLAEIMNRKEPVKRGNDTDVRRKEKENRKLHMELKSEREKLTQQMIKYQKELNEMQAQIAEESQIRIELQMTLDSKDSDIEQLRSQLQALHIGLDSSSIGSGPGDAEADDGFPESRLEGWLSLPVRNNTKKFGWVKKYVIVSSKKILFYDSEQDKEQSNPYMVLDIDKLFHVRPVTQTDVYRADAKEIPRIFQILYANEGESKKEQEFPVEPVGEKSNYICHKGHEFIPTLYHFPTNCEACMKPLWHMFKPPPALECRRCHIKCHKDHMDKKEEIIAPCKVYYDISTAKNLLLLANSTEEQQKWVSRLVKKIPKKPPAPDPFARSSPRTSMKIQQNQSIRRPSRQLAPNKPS

| SMILES | Mean Inhib (%) (kinases [1]) | Mean Inhib (%) (kinases [2]) | Mean Inhib (%) (kinases [3]) | Mean Inhib (%) (kinases [4]) | Mean Inhib (%) (kinases [5]) | Mean Inhib (%) (kinases [6]) | Mean Inhib (%) (kinases [7]) | Mean Inhib (%) (kinases [8]) | Mean Inhib (%) (kinases [9]) | Mean Inhib (%) (kinases [10]) | Mean Inhib (%) (kinases [11]) | Mean Inhib (%) (kinases [12]; [29]) | Mean Inhib (%) (kinases [12]; [30]) | Mean Inhib (%) (kinases [13]) | Mean Inhib (%) (kinases [14]) | Mean Inhib (%) (kinases [15]; [31]) | Mean Inhib (%) (kinases [15]; [32]) | Mean Inhib (%) (kinases [15]; [33]) | Mean Inhib (%) (kinases [16]) | Mean Inhib (%) (kinases [17]) | other results |
| --- | --- | --- | --- | --- | --- | --- | --- | --- | --- | --- | --- | --- | --- | --- | --- | --- | --- | --- | --- | --- | --- |
| Cc1ccc(NC(=O)c2ccnc(N3CCOCC3)c2)cc1Nc1ccnc(N2CC(C)OC(C)C2)n1 (centres unmarked) [compound 3] | 0.7% | 15.9% | 20.4% | −8.8% | 3.3% | 19.8% | −9.5% | −2.1% | 14.4% | 3.4% | 1.3% | 4.8% | 5.1% | 2.6% | 2.3% | 6.2% | −1.9% | 17.2% | 9.9% | 13.1% | Mean Inhib (%) (kinases [18]): 6.5%; Mean Inhib (%) (kinases [19]): −2.7%; Mean Inhib (%) (kinases [20]): 3.5%; Mean Inhib (%) (kinases [21]): 6.5%; Mean Inhib (%) (kinases [22]): 15.6%; Mean Inhib (%) (kinases [23]): 5.8%; Mean Inhib (%) (kinases [24]): 6.0%; Mean Inhib (%) (kinases [25]): −5.8%; Mean Inhib (%) (kinases [26]): −0.2%; Mean Inhib (%) (kinases [27]): 1.6%; Mean Inhib (%) (kinases [28]): 5.3% |
| Cc1cc(Oc2ccnc(Nc3ccc(S(N)(=O)=O)cc3)c2)c(-c2ccccn2)nc1C [compound 65] | −2.5% | 10.7% | −13.8% | −4.5% | −6.2% | 17.2% | −7.5% | 1.6% | 5.4% | 0.2% | 1.2% | 27.5% | 43.1% | −1.0% | 13.5% | 6.9% | 2.6% | 6.2% | 9.5% | 7.3% | Mean Inhib (%) (kinases [18]): 4.3%; Mean Inhib (%) (kinases [19]): 1.1%; Mean Inhib (%) (kinases [20]): 1.1%; Mean Inhib (%) (kinases [21]): 4.9%; Mean Inhib (%) (kinases [22]): 5.9%; Mean Inhib (%) (kinases [23]): 56.6%; Mean Inhib (%) (kinases [24]): 5.1%; Mean Inhib (%) (kinases [25]): 0.4%; Mean Inhib (%) (kinases [26]): 9.7%; Mean Inhib (%) (kinases [27]): 0.1%; Mean Inhib (%) (kinases [28]): 5.8% |

From US20220187282A1, “CARDIOMYOCYTE PROLIFERATION” (The Council of the Queensland Institute of Medical Research, priority 2019, published 2022)
